# According to US20240262812A1, “N-SUBSTITUTED PHENYLSULFONAMIDE COMPOUND AND USE THEREOF” (Shanghai Leado Pharmatech Co., Ltd., priority 2021, published 2024):
# Experiments:
# [1] = tested on: DSS induced inflammatory colitis in C57BL/6 mice; assay: DSS induced inflammatory colitis model in C57BL/6 mice; format: in vivo, mouse; details: 10 mg/kg oral once a day, day 0 to day 7; for DAI score: FIG. 3; for length of the colorectum / weight of the colorectum: FIG. 4; for level of colorectal inflammatory factor IL-10 (ELISA) / level of colorectal inflammatory factor TNF-α (ELISA): FIG. 5
# Method: The therapeutic effect of compounds prepared in some examples of the present invention on DSS (dextran sulfate sodium) induced inflammatory colitis in C57BL/6 mice (corresponding to ulcerative colitis) was investigated.
# • Animal species and strains: C57BL/6 mice • Administration record: No administration history • Gender and weight: Female, about 18-20 g • Breeding party/supplier: Shanghai SLAC Laboratory Animal Co., Ltd • Adaptation period: 7 days • Room: SPF Rooms • Indoor temperature: 20-26° C. • Indoor relative humidity: 40-70% • Lighting: Fluorescent lighting, 12-hour illumination (08:00-20:00) and 12 hour no illumination • Animal feeding: 2-5 mice per cage (same administration group) • Food: Unlimited access to feed (disinfected by irradiation, Shanghai SLAC Laboratory Animal Co., Ltd, China) • Water: Unlimited access to drinking water (tap water purified through ultra-pure water filtration system)
# A total of 80 C57BL/6 mice were purchased from Shanghai SLAC Laboratory Animal Co., Ltd, of which 10 were used as backup animals to select animals with suitable weight range included in the groups. All backup animals are not subjected to any administration or modeling procedures and will be euthanized uniformly at the end of the experiment.
# 70 animals were selected on Day 3 and randomly grouped based on animal weight using BioBook software to ensure that the weight values of each group of animals were similar to reduce bias.
# 3.1 An appropriate amount of DSS powder was dissolved in high-pressure sterilized drinking water solvent and a 3% DSS solution was prepared.
# 3.2 Induction of Colitis: On day 3, 70 mice were randomly divided into 7 groups according to Table 7. From day 0 to day 4, mice in groups 2 to 7 drank 3% DSS aqueous solution for 5 days, followed by drank normal water ad libitum (from day 5 to before autopsy). The day of initial administration of DSS drinking water was counted as day 0. DSS aqueous solution was wrapped in opaque dark bags to ensure light avoidance. DSS aqueous solution was replaced every 2 days.
# 3.3. Dosage regimen: See Table 7.
# Changes in body weight, feces, and bleeding of all groups of mice were record daily. Three items were scored according to Table 8 below, and the scores were added together to form the daily disease activity index (DAI) score.
# After blood collection, the animals were euthanized by inhaling excessive CO2 and dislocation of cervical vertebra. Then the abdominal cavity was cut open and the colorectum was taken out. After removing the tissue around the colon, the longitudinal length from the ileocecal valve to the anus was measured. Afterwards, the colorectum was cut open and the contents of feces were scored. Finally, the intestinal contents were cleaned, and the entire colon was photographed and weighed.
# Commercially available ELISA analysis kits were used to analyze the colorectal inflammation factors TNF-α and IL-10 in each group.
# The health status of animals and their comprehensive response to DSS and drugs were observed every day. Any abnormal appearance or behavior other than those related to the development of the disease was recorded in detail in the Pharmalegacy Biological Experimental Observation Form.
# The data was calculated as mean±standard error. Statistical analysis was performed using Graphpad Prism and SPSS software. The specific data is presented in the form of charts. When P<0.05, it is considered statistically significant.
# [2] = tested on: acetic acid induced writhing in ICR mice; assay: acetic acid induced writhing pain model in ICR mice; format: in vivo, mouse; details: for writhing frequency: 30 mg/kg single oral administration 1 h before 0.6% acetic acid i.p., 20 minutes observation, compared with G1 model group, FIG. 6; for efficacy compared with aspirin: 30 mg/kg single oral administration vs 200 mpk of aspirin
# Text: The pharmacological effect of compounds prepared in some examples of the present invention on an acetic acid induced writhing pain model in ICR mice was investigated.
# The acetic acid writhing pain model in mice is a classic pharmacological model for evaluating the treatment of drugs for visceral pain and inflammatory pain.
# • Animal species and strains: ICR mice • Medical treatment history: None • Gender, age, and weight: Male, 8 weeks old, 20-25 g • Breeder/Supplier: Shanghai SLAC Laboratory Animal Co., Ltd • Adaptation period: no less than 7 days • Room: Regular level room • Room temperature: 19-26° C. • Relative humidity: 40-70% • Lighting cycle: fluorescent lighting, 12 hours of illumination (08:00-20:00) and 12 hours of no illumination • Animal feeding: 5 animals/cage divided by group • Food: Free intake (irradiated feed, Shanghai SLAC Laboratory Animal Co., Ltd, China) • Water: Free intake (Mol Ultrapure Water System filtered municipal tap water)
# A total of 70 mice were introduced from Shanghai SLAC Laboratory Animal Co., Ltd. The animals were SPF grade and purchased at approximately 7 weeks old.
# Animals are randomly assigned to each treatment group according to the weight using the BioBook randomization function to achieve an approximate average weight for each group and reduce inter group bias.
# 3.1 Within 12 hours before use, a glacial acetic acid solution with a mass volume fraction of 0.6% was prepared with 0.9% physiological saline.
# 3.2. Administration treatment: G1 group animals were orally administered 0.9% physiological saline; G2-G6 were specifically administered the compounds of the present invention referred to the specific dosage regimen in Table 9.
# 3.3. Modeling treatment: G1 group animals were administered 0.9% physiological saline by gavage, and after 1 hour, 0.6% glacial acetic acid was injected intraperitoneally to induce pain response (10 ml/kg). G2-G8 group animals were injected intraperitoneally with 0.6% glacial acetic acid to induce pain response (10 ml/kg) after different groups were administered according to the regimen designed in Table 9.
# 3.4 Measurement: The weight of all mice was recorded before modeling treatment. A torsion test was recorded immediately after acetic acid treatment. The behavioral observation period lasted for 20 minutes. Writhes were counted by a single preson (one standard writhe includes abdominal muscle contraction, muscle extension, and hind limb extension). After testing, the animals were euthanized with CO2.
# 3.5 Experimental observation: Animal health observation and general response to drug treatment were conducted daily. All abnormal health and behavioral behaviors were recorded.
# The experimental data was calculated as mean±standard error. Statistical analysis was performed using Graphpad Prism, SPSS, or Sigmaplot software. The specific data is presented in the form of graphs. P<0.05 is considered to have statistical differences.
structure (smiles),measurement,setting,value
CNCc1ccc(NS(=O)(=O)c2ccsc2)c(-c2ccco2)c1 [IA-30],DAI score,[1],significantly reduce
same,length of the colorectum,[1],increase
same,weight of the colorectum,[1],decrease
same,level of colorectal inflammatory factor IL-10 (ELISA),[1],significantly reduce
same,level of colorectal inflammatory factor TNF-α (ELISA),[1],significantly reduce
same,writhing frequency,[2],significantly reduce
same,efficacy compared with aspirin,[2],basically equivalent to that of 200 mpk of aspirin
"CNCc1ccc(-c2nccs2)c(NS(=O)(=O)c2ccccc2)c1 [IA-51, N-(5-((methylamino)methyl)-2-(thiazol-2-yl)phenyl)benzenesulfonamide]",DAI score,[1],significantly reduce
same,length of the colorectum,[1],increase
same,weight of the colorectum,[1],decrease
same,level of colorectal inflammatory factor IL-10 (ELISA),[1],significantly reduce
same,level of colorectal inflammatory factor TNF-α (ELISA),[1],significantly reduce
same,writhing frequency,[2],significantly reduce
same,efficacy compared with aspirin,[2],basically equivalent to that of 200 mpk of aspirin
"CNCc1ccc(-c2cc[nH]n2)c(NS(=O)(=O)c2ccccc2)c1 [IA-55, N-(5-((methylamino)methyl)-2-(1H-pyrazol-3-yl)phenyl)benzenesulfonamide]",DAI score,[1],significantly reduce
same,length of the colorectum,[1],increase
same,weight of the colorectum,[1],decrease
same,level of colorectal inflammatory factor IL-10 (ELISA),[1],significantly reduce
same,level of colorectal inflammatory factor TNF-α (ELISA),[1],significantly reduce
same,writhing frequency,[2],significantly reduce
same,efficacy compared with aspirin,[2],basically equivalent to that of 200 mpk of aspirin
NCc1ccc(NS(=O)(=O)c2ccsc2)c(-c2ccco2)c1 [ID-5],DAI score,[1],significantly reduce
same,length of the colorectum,[1],increase
same,weight of the colorectum,[1],decrease
same,level of colorectal inflammatory factor IL-10 (ELISA),[1],significantly reduce
same,level of colorectal inflammatory factor TNF-α (ELISA),[1],significantly reduce
same,writhing frequency,[2],significantly reduce
same,efficacy compared with aspirin,[2],basically equivalent to that of 200 mpk of aspirin
